The source of these data is ChEMBL document CHEMBL3232853, “Alkylsulfone-containing trisubstituted cyclohexanes as potent and bioavailable chemokine receptor 2 (CCR2) antagonists” (Bioorg Med Chem Lett, 2014).

The source made the active and inactive calls. No cut-off for these calls is given here.

One may read the IC50 as the concentration at which inhibition is half-maximal. For orientation: inhibition means how much of the control response was suppressed. The clearance is the volume of plasma or blood freed of the substance per unit of time.

Series [1] has as its target Voltage-gated inwardly rectifying potassium channel KCNH2 (Homo sapiens, UniProt Q12809). Kind of series: Inhibition of human ERG by FLIPR assay.
Series [2] deals with C-C chemokine receptor type 2 (Homo sapiens, UniProt P41597). Kind of series: Displacement of [125I]-labeled human MCP1 from CCR2 in human PBMC. On the technique in general: In a radioligand displacement assay an active substance lowers the binding of a labelled ligand.
Chain of C-C chemokine receptor type 2 (P41597 whole entry): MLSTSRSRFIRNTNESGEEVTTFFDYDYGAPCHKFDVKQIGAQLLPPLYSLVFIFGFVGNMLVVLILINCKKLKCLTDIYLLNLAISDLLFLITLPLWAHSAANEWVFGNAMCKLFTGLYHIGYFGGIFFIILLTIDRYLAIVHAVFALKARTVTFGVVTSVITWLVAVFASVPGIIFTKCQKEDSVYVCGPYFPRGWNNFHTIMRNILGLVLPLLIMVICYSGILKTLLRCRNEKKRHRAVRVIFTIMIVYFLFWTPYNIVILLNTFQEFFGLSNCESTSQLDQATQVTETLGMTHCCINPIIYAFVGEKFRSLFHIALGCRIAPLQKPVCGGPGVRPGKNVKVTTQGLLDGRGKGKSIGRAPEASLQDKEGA
The species entered for series [3] is Rattus norvegicus. Description: Inhibition of rat sodium channel site 2 at 10 uM relative to control.
A short description of series [4]: Clearance in dog at 1 mg/kg, iv. As to conditions: in vivo. Further details: dose 1 mg/kg, route intravenous. In kind it is ADME, organism-based, Canis lupus familiaris.
The species named for series [5] is Mus musculus. Kind of series: Antiinflammatory activity in thioglycollate-induced wild type mouse peritonitis model. In kind it is functional, organism-based.
Series [6] in a line: Permeability across apical to basolateral side in human Caco2 cells. As to conditions: Caco-2, read-out: permeability. In kind it is ADME, cell-based.
Series [7] has as its system Mus musculus. Description: Oral bioavailability in mouse at 100 mg/kg. In kind it is ADME, organism-based. The settings on record: in vivo.
Series [8] relates to Cynomolgus monkey. Description: Oral bioavailability in cynomolgus monkey at 10 mg/kg. In kind it is ADME, organism-based, Macaca fascicularis. The settings on record: in vivo.
The nature of series [9]: Clearance in cynomolgus monkey at 1 mg/kg, iv. In kind it is ADME, organism-based, Macaca fascicularis. Further details: dose 1 mg/kg, route intravenous. The settings on record: in vivo.
Series [10] has as its system Mus musculus. Kind of series: Antiinflammatory activity in thioglycollate-induced human CCR2 knock-in mouse peritonitis model assessed as reduction of Ly6C+F4/80+ cell numbers in peripheral blood at 100 mg/kg, po administered 1 hr prior to thioglycollate challenge measured after 6 hrs. In kind it is functional, organism-based. The arrangement: dose 100 mg/kg.
Series [11] concerns Liver microsome. As to conditions: human, microsomes, 10 min.
Description: Metabolic stability in human liver microsomes assessed as compound remaining after 10 mins
Series [12] relates to Mus musculus. Kind of series: Antiinflammatory activity in thioglycollate-induced human CCR2 knock-in mouse peritonitis model assessed as reduction of Ly6C+F4/80+ cell number peritoneal cavity at 100 mg/kg, po administered 1 hr prior to thioglycollate challenge measured after 6 hrs. The arrangement: dose 100 mg/kg. In kind it is functional, organism-based.
In series [13] the test system is Rattus norvegicus. Kind of series: Oral bioavailability in rat at 43 mg/kg. In kind it is ADME, organism-based. As to conditions: in vivo.
The species entered for series [14] is Homo sapiens. Description: Inhibition of sodium channel (unknown origin) at 10 uM at 4 Hz by patch clamp assay relative to control. A general note: Patch clamp records ionic current or voltage across a cell membrane.
Series [15] relates to Canis familiaris. Description: Oral bioavailability in dog at 10 mg/kg. In kind it is ADME, organism-based, Canis lupus familiaris. The settings on record: in vivo.
The nature of series [16]: Clearance in mouse at 5 mg/kg, iv. As to conditions: in vivo. In kind it is ADME, organism-based. Further details: dose 5 mg/kg, route intravenous.
Series [17] can be described thus: Clearance in rat at 4 mg/kg, iv. In kind it is ADME, organism-based. The arrangement: dose 4 mg/kg, route intravenous. As to conditions: in vivo.
Series [18] deals with Rattus norvegicus. Description: Oral bioavailability in rat at 72 mg/kg. As to conditions: in vivo. In kind it is ADME, organism-based.
The test system of series [19] is Canis familiaris. Description: Oral bioavailability in dog at 14 mg/kg. The settings on record: in vivo. In kind it is ADME, organism-based, Canis lupus familiaris.
Series [20] relates to Mus musculus. Kind of series: Oral bioavailability in mouse at 54 mg/kg. In kind it is ADME, organism-based. The settings on record: in vivo.
Series [21] in a line: Clearance in rat at 6 mg/kg, iv. In kind it is ADME, organism-based. The arrangement: dose 6 mg/kg, route intravenous. The settings on record: in vivo.
Series [22] is described as follows: Clearance in mouse at 3 mg/kg, iv. In kind it is ADME, organism-based. The arrangement: dose 3 mg/kg, route intravenous. As to conditions: in vivo.
Series [23] deals with Cynomolgus monkey. Kind of series: Oral bioavailability in cynomolgus monkey at 14 mg/kg. In kind it is ADME, organism-based, Macaca fascicularis. The settings on record: in vivo.
The test system of series [24] is Mus musculus. Kind of series: Antiinflammatory activity in thioglycollate-induced human CCR2 knock-in mouse peritonitis model assessed as reduction of Ly6C+F4/80+ cell numbers in peripheral blood at 50 mg/kg, po administered 1 hr prior to thioglycollate challenge measured after 6 hrs. In kind it is functional, organism-based. Further details: dose 50 mg/kg.
Series [25] relates to Mus musculus. Kind of series: Antiinflammatory activity in thioglycollate-induced human CCR2 knock-in mouse peritonitis model assessed as reduction of Ly6C+F4/80+ cell numbers in peritoneal cavity at 50 mg/kg, po administered 1 hr prior to thioglycollate challenge measured after 6 hrs. In kind it is functional, organism-based. The arrangement: dose 50 mg/kg.
Series [26] can be described thus: Antagonist activity at CCR2 in human monocytes assessed as reduction of chemotaxis in presence of […].

Chain of Voltage-gated inwardly rectifying potassium channel KCNH2 (Q12809 whole entry): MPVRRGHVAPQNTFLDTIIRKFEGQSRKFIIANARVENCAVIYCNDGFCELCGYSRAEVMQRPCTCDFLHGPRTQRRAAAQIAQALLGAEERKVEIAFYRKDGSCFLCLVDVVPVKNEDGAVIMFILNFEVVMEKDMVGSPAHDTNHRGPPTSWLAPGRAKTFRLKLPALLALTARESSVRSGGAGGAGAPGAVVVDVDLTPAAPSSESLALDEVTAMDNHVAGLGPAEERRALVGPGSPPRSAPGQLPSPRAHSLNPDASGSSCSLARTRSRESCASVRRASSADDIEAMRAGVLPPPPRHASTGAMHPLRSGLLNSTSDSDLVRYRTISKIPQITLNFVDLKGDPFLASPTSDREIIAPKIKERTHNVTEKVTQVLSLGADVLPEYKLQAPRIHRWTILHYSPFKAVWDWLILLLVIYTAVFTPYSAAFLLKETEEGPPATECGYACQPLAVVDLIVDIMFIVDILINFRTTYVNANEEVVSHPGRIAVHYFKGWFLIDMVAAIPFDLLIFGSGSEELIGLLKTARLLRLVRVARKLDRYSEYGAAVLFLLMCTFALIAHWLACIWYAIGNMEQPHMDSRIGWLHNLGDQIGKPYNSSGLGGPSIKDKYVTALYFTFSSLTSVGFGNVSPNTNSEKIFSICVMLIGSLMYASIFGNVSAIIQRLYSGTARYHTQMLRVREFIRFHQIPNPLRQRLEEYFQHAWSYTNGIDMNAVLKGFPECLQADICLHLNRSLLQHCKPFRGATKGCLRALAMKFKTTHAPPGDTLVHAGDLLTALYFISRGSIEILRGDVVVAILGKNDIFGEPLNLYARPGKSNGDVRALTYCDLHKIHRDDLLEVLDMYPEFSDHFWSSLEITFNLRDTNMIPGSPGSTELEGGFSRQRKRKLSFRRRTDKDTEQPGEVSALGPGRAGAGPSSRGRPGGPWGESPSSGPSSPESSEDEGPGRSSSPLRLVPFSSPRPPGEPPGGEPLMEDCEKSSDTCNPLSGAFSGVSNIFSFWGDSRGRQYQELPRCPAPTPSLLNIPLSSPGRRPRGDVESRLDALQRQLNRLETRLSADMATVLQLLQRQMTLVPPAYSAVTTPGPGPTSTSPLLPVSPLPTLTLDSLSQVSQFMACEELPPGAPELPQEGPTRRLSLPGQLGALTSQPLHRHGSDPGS

In the case of `CC(C)N(C)[C@@H]1CC[C@H](N2CC[C@H](NC(=O)c3cc(F)cc(C(F)(F)F)c3)C2=O)[C@H](CS(=O)(=O)C(C)(C)C)C1`, the IC50 in [1] was over 80000 nM; in series [2], 1.3 nM. This molecule displayed an inhibition in series [3] of 48%.

In the case of `CC(C)N(C)[C@@H]1CC[C@H](N2CC[C@H](NC(=O)c3cccc(C(C)(C)C)c3)C2=O)[C@H](CS(C)(=O)=O)C1`, the IC50 in series [2] came out at 1.2 nM.

On to `CC(C)N(C)[C@@H]1CC[C@H](N2CC[C@H](NC(=O)c3cccc(C(F)(F)F)c3)C2=O)[C@H](CS(=O)(=O)C(C)(C)C)C1`, for which the clearance came to 5 mL/min/kg in series [4], 12 mL/min/kg in series [9], 25 mL/min/kg in series [16] and 54 mL/min/kg in [17]. Moreover, the outcome in [5] was inactive. In addition, in series [6], the Papp A→B is 3 ×10⁻⁶ cm/s. Also, the F in series [7] came out at 13%; in series [8] it was 26%; in [13], 14%; in series [15], 74%. The result in [10] and in series [12] was Active. This molecule gave a 50% inhibitory concentration (IC50) in series [2] of 0.96 nM. Besides, the Stability in series [11] is 100%. The inhibition amounted to 48% in series [3] and 19% in [14].

For the molecule `CCS(=O)(=O)C[C@@H]1C[C@H](N(C)C(C)C)CC[C@@H]1N1CC[C@H](NC(=O)c2cccc(-c3ccccc3)c2)C1=O`, the results for the concentration for half-maximal inhibition (IC50) in series [1] and in [2] were 60000 nM and 1.1 nM, respectively.

With `CC(C)N(C)[C@@H]1CC[C@H](N2CC[C@H](NC(=O)c3cccc(OC(F)(F)F)c3)C2=O)[C@H](CS(C)(=O)=O)C1`, in series [2], the half-inhibitory concentration (IC50) came out at 5 nM. For the same molecule, in series [3], the inhibition is 32%.

Consider `CC(C)N(C)[C@@H]1CC[C@H](N2CC[C@H](NC(=O)c3cccc(C(C)(C)C)c3)C2=O)[C@H](CS(=O)(=O)C(C)C)C1`, for which the IC50 in series [2] turned out to be 0.5 nM.

On to `CC(C)N(C)[C@@H]1CC[C@H](N2CC[C@H](NC(=O)c3cccc(C(F)(F)F)c3)C2=O)[C@H](CS(C)(=O)=O)C1`, for which the clearance turned out to be 3 mL/min/kg in [4], 14 mL/min/kg in series [9], 42 mL/min/kg in series [21] and 70 mL/min/kg in series [22]. Also, the F in [18] turned out to be 1%; in series [19], 51%; in series [20], 16%; in series [23] it was 9%. Moreover, the Papp A→B in series [6] was under 1.5 ×10⁻⁶ cm/s. The IC50 in [2] was found to be 1.8 nM. This molecule also had a Stability in [11] of 100%. Also, the values for the inhibition in series [3] and in series [14] were 3% and 22%, respectively. Further, the result in series [24] and in series [25] was Active.

Consider `Cc1ccc(C(=O)N[C@H]2CCN([C@H]3CC[C@@H](N(C)C(C)C)C[C@H]3CS(C)(=O)=O)C2=O)cc1C(F)(F)F`, for which, in [2], the IC50 was found to be 5.2 nM. This molecule also showed an inhibition in series [3] of 36%.

Take `CCS(=O)(=O)C[C@@H]1C[C@H](N(C)C(C)C)CC[C@@H]1N1CC[C@H](NC(=O)c2cccc(C(F)(F)F)c2)C1=O`: the Papp A→B in [6] was under 1.5 ×10⁻⁶ cm/s. Moreover, in series [2], the IC50 was found to be 1.2 nM. The same molecule registered a Stability in [11] of 100%. The inhibition in series [3] is 26%; in series [14] it was 4.2%.

On to `CC(C)N(C)[C@@H]1CC[C@H](N2CC[C@H](NC(=O)c3cccc(C(F)(F)F)c3)C2=O)[C@H](CS(=O)(=O)C(C)C)C1`, for which the Papp A→B in series [6] is under 1.5 ×10⁻⁶ cm/s. The molecule also returned an IC50 in [2] of 0.34 nM. Further, in series [11], the Stability is 100%.

The molecule `CC(C)N(C)[C@@H]1CC[C@H](N2CC[C@H](NC(=O)c3cccc(C(C)(C)C)n3)C2=O)[C@H](CS(C)(=O)=O)C1` showed a concentration for half-maximal inhibition (IC50) in series [2] of 0.7 nM. The same molecule displayed an inhibition in [3] of 46%.

Regarding `CC(C)N(C)[C@@H]1CC[C@H](N2CC[C@H](NC(=O)c3cccc(C(F)(F)F)c3)C2=O)[C@H](CS(=O)(=O)c2ccccc2)C1`, the Papp A→B in series [6] is under 1.5 ×10⁻⁶ cm/s. The molecule also yielded a Stability in series [11] of 88%. Besides, in series [26], the half-maximal inhibitory concentration (IC50) came to 0.5 nM.

Regarding `CC(C)N(C)[C@@H]1CC[C@H](N2CC[C@H](NC(=O)c3cccc(C(F)(F)F)n3)C2=O)[C@H](CS(C)(=O)=O)C1`, the IC50 in series [1] is over 80000 nM; in series [2] it was 2.2 nM. Also, the inhibition in [3] was determined as 0%.

On to `CC(C)N(C)[C@@H]1CC[C@H](N2CC[C@H](NC(=O)c3cccc(OC(F)(F)F)c3)C2=O)[C@H](CS(=O)(=O)C(C)(C)C)C1`, for which the IC50 in series [1] was over 80000 nM; in series [2], 1.2 nM. Moreover, the inhibition in series [3] is 61%.
